Paper PMC10382584, “Macrocyclization of linear molecules by deep learning to facilitate macrocyclic drug candidates discovery” (Nature Communications, 2023)
Several values for one entry are separate records, joined by “and”; a condition that tells them apart may be missing. Identical values can stand only once. Like-named read-outs stand apart in the source and are kept apart here.

Columns and labels:
JAK2 = target: T1, JAK2 (Homo sapiens, UniProt O60674); assay: JAK2 enzyme assay (Z'-LYTE kinase assay kit); assay type: biochemical; settings: JAK2 enzyme
T1 construct: 0.05–0.42 ng JAK2, 2 μM peptide substrate (Tyr06)
Method: JAK kinase activity assays were performed using Z’-LYTETM kinase assay kit (Life Technologies, pv4122). […] The mixture was added into the 384-well microplate, shaken gently, and then incubated at room temperature for 1 h. Subsequently, 5 μL development solution was added to the well for incubating another 1 h. Finally, 5 μL stop reagent was added to stop the reaction. […] IC50 values were calculated using GraphPad Prism v8.0.3, and three parallel experiments were performed.

In vivo PK study in mice = settings: for concentration at time point (concentration-time data, Supplementary Fig. 8): individual mice 1-3; for AUCinf / Cmax / T1/2 / Tmax: mice
Method: The mice were separately administered to a group of three mice per time point for intravenous (5 mg/kg) or oral administration (5 mg/kg). […] Then the samples were separated by centrifugation and analyzed by LC-MS/MS (XEVO TQ-S) to determine the plasma drug concentrations. The PK parameters were calculated using the noncompartment model with Phoenix WinNonLin v8.0. The animal experimental procedures were approved by the Medicine Research Ethics Committee of Hangzhou Leading Pharmatech Co., Ltd.

SET-2 cells = assay: Cell proliferation assay (CCK-8), SET-2 cells; assay type: cell-based, human
[1] = Chemical stability in DMSO stock solution (HPLC purity); assay type: physicochemical; settings: mean±SD
From the text: compounds were formulated in the solubilizing vehicle (5% DMSO/30% PEG400/65% […]
safety to the mice in the test.
6. What was the sample dissolved in for the in vitro and in vivo experiments? Response: The solvent information for the in vitro and in vivo experiments has been added in the revised manuscript. […]
7. Was the stability of the different compounds assessed and compared to Fedratinib? This is generally a critical point in macrocyclic studies. […]
in DMSO stock solution. Test compounds were incubated at room temperature and 60 ℃, respectively, for 72 h, and their purities (%) were determined using HPLC equipped with a CORTECS C18 column (4.6*50 mm, 2.7 μm particle size) and a UV/VIS detector setting of λ=210 nm. All co mpounds were eluted with the two solvent systems ([…] as organic phase in Method I and CH3OH as organic phase in Method II) at a flow rate of 0.3 ml/min. Each experiment repeated for three times and the results are represented as mean±SD.
Ta b e l R 1 . Comparison of chemical stability of different compounds at room temperature and 60 ℃, respectively.

T1 sequence (O60674 whole entry): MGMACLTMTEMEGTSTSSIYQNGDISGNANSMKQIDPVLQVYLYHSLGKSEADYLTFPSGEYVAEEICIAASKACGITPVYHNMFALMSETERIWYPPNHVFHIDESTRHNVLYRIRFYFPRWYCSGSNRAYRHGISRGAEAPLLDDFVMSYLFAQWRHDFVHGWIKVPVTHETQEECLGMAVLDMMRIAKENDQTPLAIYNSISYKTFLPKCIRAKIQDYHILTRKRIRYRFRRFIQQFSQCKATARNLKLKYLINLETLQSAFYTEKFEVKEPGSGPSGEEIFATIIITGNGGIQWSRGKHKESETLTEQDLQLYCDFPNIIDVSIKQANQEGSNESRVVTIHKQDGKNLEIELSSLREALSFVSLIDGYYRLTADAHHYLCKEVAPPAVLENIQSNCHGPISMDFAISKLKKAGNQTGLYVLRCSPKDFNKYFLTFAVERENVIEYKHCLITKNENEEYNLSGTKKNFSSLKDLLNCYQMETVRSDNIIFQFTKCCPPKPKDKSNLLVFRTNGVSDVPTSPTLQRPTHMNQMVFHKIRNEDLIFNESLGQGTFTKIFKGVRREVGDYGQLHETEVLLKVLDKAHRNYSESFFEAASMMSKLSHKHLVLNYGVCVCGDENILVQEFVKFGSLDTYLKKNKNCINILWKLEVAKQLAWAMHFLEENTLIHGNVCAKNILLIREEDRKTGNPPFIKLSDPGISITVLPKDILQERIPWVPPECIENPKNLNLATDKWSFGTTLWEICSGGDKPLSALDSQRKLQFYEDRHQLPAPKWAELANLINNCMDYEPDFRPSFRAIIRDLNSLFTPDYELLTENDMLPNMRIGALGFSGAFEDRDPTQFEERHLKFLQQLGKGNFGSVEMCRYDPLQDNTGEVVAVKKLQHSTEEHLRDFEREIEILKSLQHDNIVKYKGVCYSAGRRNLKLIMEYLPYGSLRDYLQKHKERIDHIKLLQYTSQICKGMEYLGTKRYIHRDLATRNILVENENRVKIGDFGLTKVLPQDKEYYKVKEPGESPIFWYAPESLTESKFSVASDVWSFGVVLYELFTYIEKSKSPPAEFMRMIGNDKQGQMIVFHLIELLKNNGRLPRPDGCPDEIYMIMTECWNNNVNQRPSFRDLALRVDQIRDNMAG

## Cc1cnc2nc1Nc1cccc(c1)COCC=CCOCc1cc(ccc1OCCN1CCCC1)N2 [Compound 3]
JAK2; mean of 3 replicates, read-out: IC50/μM mean, enzyme inhibitory activity
  IC50: 0.006 µM
JAK2; mean ± SD of 3 replicates, read-out: IC50/μM mean ± SD, enzyme inhibitory activity
  IC50: 0.006 ± 0.001 µM
JAK2; single-replicate fits (replicates 1-3), read-out: IC50/μM (individual replicates), enzyme inhibitory activity
  IC50: 0.00662 µM and 0.00532 µM and 0.00569 µM
In vivo PK study in mice; iv 5 mg/kg, 0.5 h, 5 mg/kg;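 also: mice dosed intravenously or orally, three animals per time point, plasma drug levels quantified by LC-MS/MS, PK parameters derived by noncompartmental analysis in Phoenix WinNonLin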
  concentration at time point (concentration-time data, Supplementary Fig. 8): 112.17 and 96.91 and 108.01
In vivo PK study in mice; iv 5 mg/kg, 1 h, 5 mg/kg;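 also: mice dosed intravenously or orally, three animals per time point, plasma drug levels quantified by LC-MS/MS, PK parameters derived by noncompartmental analysis in Phoenix WinNonLin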
  concentration at time point (concentration-time data, Supplementary Fig. 8): 33.98 and 41.85 and 29.29
In vivo PK study in mice; iv 5 mg/kg, 2 h, 5 mg/kg;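 also: mice dosed intravenously or orally, three animals per time point, plasma drug levels quantified by LC-MS/MS, PK parameters derived by noncompartmental analysis in Phoenix WinNonLin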
  concentration at time point (concentration-time data, Supplementary Fig. 8): 22.85 and 22.08 and 24.61
In vivo PK study in mice; iv 5 mg/kg, 4 h, 5 mg/kg;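 also: mice dosed intravenously or orally, three animals per time point, plasma drug levels quantified by LC-MS/MS, PK parameters derived by noncompartmental analysis in Phoenix WinNonLin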
  concentration at time point (concentration-time data, Supplementary Fig. 8): 23.46 and 31.4 and 25.29
In vivo PK study in mice; iv 5 mg/kg, 8 h, 5 mg/kg
  concentration at time point (concentration-time data, Supplementary Fig. 8): 17.79 and 10.67 and 14.54
In vivo PK study in mice; iv 5 mg/kg, 24 h, 5 mg/kg
  concentration at time point (concentration-time data, Supplementary Fig. 8): 2.18 and 0 (2×)
In vivo PK study in mice; iv (5 mg/kg)
  AUCinf: 443.20 ng·h/mL
  Cmax: 351.23 ng/mL
  T1/2: 0.52 h
  Tmax: 0.083 h
In vivo PK study in mice; po (5 mg/kg)
  AUCinf: 114.69 ng·h/mL
  Cmax: 6.64 ng/mL
  T1/2: 10.07 h
  Tmax: 4.00 h
In vivo PK study in mice; po 5 mg/kg, 1 h, 5 mg/kg
  concentration at time point (concentration-time data, Supplementary Fig. 8): 2.46 and 4.26 and 2.81
In vivo PK study in mice; po 5 mg/kg, 2 h, 5 mg/kg
  concentration at time point (concentration-time data, Supplementary Fig. 8): 3.59 and 4.51 and 5.67
In vivo PK study in mice; po 5 mg/kg, 3 h, 5 mg/kg
  concentration at time point (concentration-time data, Supplementary Fig. 8): 4.59 and 4.64 and 5.68
In vivo PK study in mice; po 5 mg/kg, 4 h, 5 mg/kg
  concentration at time point (concentration-time data, Supplementary Fig. 8): 6.18 and 5.41 and 8.34
In vivo PK study in mice; po 5 mg/kg, 6 h, 5 mg/kg
  concentration at time point (concentration-time data, Supplementary Fig. 8): 4.85 and 6.09 and 5.97
In vivo PK study in mice; po 5 mg/kg, 8 h, 5 mg/kg
  concentration at time point (concentration-time data, Supplementary Fig. 8): 4.94 and 5.49 and 4.7
In vivo PK study in mice; po 5 mg/kg, 24 h
  concentration at time point (concentration-time data, Supplementary Fig. 8): 0
SET-2 cells; SET-2 cell lines, C 0.0977 μM, single wells of replicate 1 and replicate 2
  Inhibition (%): -27.9889% and -18.4466% and -28.7656% and 0.261% and 11.375% and 10.333%
SET-2 cells; SET-2 cell lines, C 0.1953 μM, single wells of replicate 1 and replicate 2
  Inhibition (%): -32.7601% and -23.4397% and -24.3273% and 16.816% and 17.164% and 5.470%
SET-2 cells; SET-2 cell lines, C 0.3906 μM, single wells of replicate 1 and replicate 2
  Inhibition (%): -24.5492% and -19.4452% and -33.2039% and 12.880% and 13.806% and 4.892%
SET-2 cells; SET-2 cell lines, C 0.7813 μM, single wells of replicate 1 and replicate 2
  Inhibition (%): -42.4133% and -41.7476% and -46.4078% and 9.291% and 13.806% and 8.828%
SET-2 cells; SET-2 cell lines, C 1.5625 μM, single wells of replicate 1 and replicate 2
  Inhibition (%): -43.4119% and -41.8585% and -40.6380% and 14.617% and 26.541% and 23.994%
SET-2 cells; SET-2 cell lines, C 3.1250 μM, single wells of replicate 1 and replicate 2
  Inhibition (%): -19.0014% and -10.7906% and -7.5728% and 27.931% and 19.711% and 22.952%
SET-2 cells; SET-2 cell lines, 6.2500 μM, single wells, replicates 1 and 2, 6.25 µM
  Inhibition (%): 17.1706% and 27.3786% and 29.5978% and 31.635% and 25.499% and 11.259%
SET-2 cells; SET-2 cell lines, 12.5000 μM, single wells, replicates 1 and 2, 12.5 µM
  Inhibition (%): 59.6671% and 60.0000% and 61.2205% and 43.097% and 40.782% and 34.993%
SET-2 cells; SET-2 cell lines, mean of 2 replicates, read-out: IC50/μM mean, cellular antiproliferative activity
  IC50: 11.1 µM
SET-2 cells; SET-2 cell lines, mean ± sd of 2 replicates, read-out: IC50/μM mean ± sd, cellular antiproliferative activity
  IC50: 11.1 ± 0.13 µM
SET-2 cells; SET-2 cell lines, single-replicate fits, read-out: IC50/μM (individual replicates), cellular antiproliferative activity
  IC50: 11 µM and 11.2 µM
SET-2 cells; SET-2 cells, 72 h, mean ± SD, read-out: Cellular Antiproliferative Activity (IC50) SET-2
  IC50: 11.1 ± 0.13 µM
[1]; 60 ℃, 0 h
  purity after incubation in DMSO stock solution: 99.78±0.07%
[1]; 60 ℃, 2 h
  purity after incubation in DMSO stock solution: 99.46±0.04%
[1]; 60 ℃, 24 h
  purity after incubation in DMSO stock solution: 99.64±0.04%
[1]; 60 ℃, 48 h
  purity after incubation in DMSO stock solution: 99.66±0.06%
[1]; 60 ℃, 72 h
  purity after incubation in DMSO stock solution: 99.78±0.03%
[1]; Room Temperature, 0 h
  purity after incubation in DMSO stock solution: 99.68±0.05%
[1]; Room Temperature, 2 h
  purity after incubation in DMSO stock solution: 99.77±0.01%
[1]; Room Temperature, 24 h
  purity after incubation in DMSO stock solution: 99.68±0.07%
[1]; Room Temperature, 48 h
  purity after incubation in DMSO stock solution: 99.63±0.02%
[1]; Room Temperature, 72 h
  purity after incubation in DMSO stock solution: 99.64±0.10%
